Our source for the NS values is ChEMBL document CHEMBL1135890, “Structure-activity relationships of 2'-fluoro-2',3'-unsaturated D-nucleosides as anti-HIV-1 agents” (J Med Chem, 2002).

The test addresses Adenosine deaminase (Bos taurus) (UniProt P56658). Put plainly: Michaelis constant was determined against mammalian Adenosine deaminase; NS = not a substrate of adenosine deaminase.

Sequence of Adenosine deaminase (Bos taurus) (P56658 whole entry, looked up): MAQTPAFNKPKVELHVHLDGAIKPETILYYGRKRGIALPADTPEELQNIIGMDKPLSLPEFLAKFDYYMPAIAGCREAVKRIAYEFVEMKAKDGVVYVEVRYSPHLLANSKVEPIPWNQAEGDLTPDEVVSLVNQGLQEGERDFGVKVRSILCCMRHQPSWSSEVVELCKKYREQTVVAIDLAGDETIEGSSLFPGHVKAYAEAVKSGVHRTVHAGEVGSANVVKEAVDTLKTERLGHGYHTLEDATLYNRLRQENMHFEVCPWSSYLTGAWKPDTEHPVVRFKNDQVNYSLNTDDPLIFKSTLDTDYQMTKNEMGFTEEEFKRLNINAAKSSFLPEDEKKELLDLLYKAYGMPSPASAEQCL

As to `Nc1ncnc2c1ncn2[C@@H]1O[C@H](CO)C=C1F`, the NS result is “Not a substrate”.
